Among the data in ChEMBL document CHEMBL1833905, “Design, synthesis and primary activity assay of tripeptidomimetics as histone deacetylase inhibitors with linear linker and branched cap group” (Eur J Med Chem, 2011) are IC50 values, retold here.

Molecules are shown by their SMILES. pIC50: −log10 of the molar value. Some results are limits rather than exact numbers.

One experiment deals with T1, Histone deacetylase 8 (Homo sapiens, UniProt Q9BY41).
T1 sequence (Q9BY41 whole entry): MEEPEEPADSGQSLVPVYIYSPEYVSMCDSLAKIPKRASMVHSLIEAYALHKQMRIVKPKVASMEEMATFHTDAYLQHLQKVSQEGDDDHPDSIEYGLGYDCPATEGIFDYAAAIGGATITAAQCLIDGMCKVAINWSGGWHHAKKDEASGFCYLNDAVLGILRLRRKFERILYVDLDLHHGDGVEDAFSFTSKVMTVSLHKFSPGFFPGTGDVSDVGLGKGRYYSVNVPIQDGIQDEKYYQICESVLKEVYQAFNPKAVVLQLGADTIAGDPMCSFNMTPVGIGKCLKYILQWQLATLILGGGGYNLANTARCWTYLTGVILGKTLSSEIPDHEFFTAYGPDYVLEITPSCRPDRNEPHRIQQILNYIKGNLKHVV
Briefly: Inhibition of human HDAC8 expressed in Escherichia coli using Boc-Lys (acetyl)-AMC as substrate treated for 5 mins before substrate addition measured after 30 mins by fluorescence assay.

For a further experiment, the system named is MCF7. Briefly: Antiproliferative activity against human MCF7 cells after 48 hrs by MTT assay. The experiment is classed as functional, cell-based. To be noted: MCF7, 48 h.
The target in another experiment is Histone deacetylase 1 (Homo sapiens, UniProt Q13547). Briefly: Inhibition of human HDAC1 expressed in Escherichia coli using fluorogenic substrate treated for 5 mins before substrate addition measured after 30 mins by fluorescence assay.
A further experiment has as its system MDA-MB-231. Nature of the experiment: Antiproliferative activity against human MDA-MB-231 cells after 48 hrs by MTT assay. The following applies: MDA-MB-231, 48 h. Format: functional, cell-based. (Tetrazolium assays rely on reduction of a dye to a coloured formazan, in cell work by metabolically active cells.)
For a further experiment, the system named is PC-3. Nature of the experiment: cells. The following applies: Homo sapiens, PC-3, 48 h.

Histone deacetylase 1, sequence (Q13547 whole entry): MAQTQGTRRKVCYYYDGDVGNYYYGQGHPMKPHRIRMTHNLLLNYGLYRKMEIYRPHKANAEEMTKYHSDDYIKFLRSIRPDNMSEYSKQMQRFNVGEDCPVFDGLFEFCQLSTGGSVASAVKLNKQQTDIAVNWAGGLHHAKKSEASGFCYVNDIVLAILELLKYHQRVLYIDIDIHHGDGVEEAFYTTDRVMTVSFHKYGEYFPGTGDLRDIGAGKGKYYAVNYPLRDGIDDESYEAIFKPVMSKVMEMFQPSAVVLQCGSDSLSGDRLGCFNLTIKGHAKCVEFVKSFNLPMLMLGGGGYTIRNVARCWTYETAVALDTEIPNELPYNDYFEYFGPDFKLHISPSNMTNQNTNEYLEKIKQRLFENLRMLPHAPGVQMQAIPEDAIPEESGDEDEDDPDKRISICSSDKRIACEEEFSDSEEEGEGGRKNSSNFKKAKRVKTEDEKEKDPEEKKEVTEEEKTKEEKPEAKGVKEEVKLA

The pIC50 is −log10 of the IC50, conventionally taken in molar units. Low readings indicate a large IC50, high ones a small IC50. For the compound `N[C@@H](Cc1ccccc1)C(=O)N1CC2(C[C@H]1C(=O)NCCCCCC(=O)NO)SCCS2`, on Histone deacetylase 8, the negative-log IC50 (pIC50) is 6.08.

With `O=C(CCCCCNC(=O)[C@@H]1CC2(CN1)SCCS2)NO`, the negative-log IC50 (pIC50) on Histone deacetylase 8 is 5.59.

Consider `NCCC(=O)N1CC2(C[C@H]1C(=O)NCCCCCC(=O)NO)SCCS2`, for which the negative logarithm of the IC50 (pIC50) on Histone deacetylase 8 is 5.71.

`N[C@@H](Cc1c[nH]c2ccccc12)C(=O)N1CC2(C[C@H]1C(=O)NCCCCCC(=O)NO)SCCS2` showed a pIC50 on Histone deacetylase 8 of 6.16.

`CC(C)(C)OC(=O)NCCCC[C@H](NC(=O)OC(C)(C)C)C(=O)N1CC2(C[C@H]1C(=O)NCCCCCC(=O)NO)SCCS2`: the pIC50 against Histone deacetylase 8 is 6.46; in the experiment with MCF7 it was 4.37; on Histone deacetylase 1, 6.01; with MDA-MB-231, 4.89; in the experiment with PC-3 it was 4.46.

In turn, `O=C(CCCCCCC(=O)Nc1ccccc1)NO` [VORINOSTAT] gave a pIC50 in the experiment with PC-3 of 5.70.

For the compound `CC(C)(C)OC(=O)N[C@@H](Cc1ccc(O)cc1)C(=O)N1CC2(C[C@H]1C(=O)NCCCCCC(=O)NO)SCCS2`, the negative-log IC50 (pIC50) against Histone deacetylase 8 was 7.68; in the experiment on MCF7 it was 4.67; against Histone deacetylase 1, 6.35; in the experiment with MDA-MB-231, 4.52; with PC-3, 4.61.

For the compound `CC(C)(C)OC(=O)N[C@@H](Cc1ccccc1)C(=O)N1CC2(C[C@H]1C(=O)NCCCCCC(=O)NO)SCCS2`, the negative-log IC50 (pIC50) was 7.46 against Histone deacetylase 8; 5.11 with MCF7; 6.01 on Histone deacetylase 1; 5.55 in the experiment with MDA-MB-231; 4.90 with PC-3.

Take `CC(C)(C)OC(=O)NCCCC(=O)N1CC2(C[C@H]1C(=O)NCCCCCC(=O)NO)SCCS2`: on Histone deacetylase 8, the pIC50 was 6.02.

Turning to `CC(C)C[C@H](NC(=O)OC(C)(C)C)C(=O)N1CC2(C[C@H]1C(=O)NCCCCCC(=O)NO)SCCS2`, the pIC50 is 5.45 in the experiment with MCF7, 6.17 on Histone deacetylase 1, 5.46 with MDA-MB-231 and 5.37 in the experiment with PC-3.

Consider `N[C@@H](Cc1ccc(O)cc1)C(=O)N1CC2(C[C@H]1C(=O)NCCCCCC(=O)NO)SCCS2`, for which the pIC50 is 6.31 against Histone deacetylase 8; less than 4.00 in the experiment with MCF7; 6.35 at Histone deacetylase 1; less than 4.00 with MDA-MB-231; less than 4.00 in the experiment on PC-3.

Take `CC(C)(C)OC(=O)N[C@@H](Cc1c[nH]c2ccccc12)C(=O)N1CC2(C[C@H]1C(=O)NCCCCCC(=O)NO)SCCS2`: the pIC50 is 6.85 against Histone deacetylase 8; 5.04 in the experiment on MCF7; 6.12 against Histone deacetylase 1; 5.23 with MDA-MB-231; 4.86 in the experiment with PC-3.

As for `NCCCC[C@H](N)C(=O)N1CC2(C[C@H]1C(=O)NCCCCCC(=O)NO)SCCS2`, the negative logarithm of the IC50 (pIC50) against Histone deacetylase 8 was 5.32.
